Where “and” joins values, the source holds several entries; their conditions need not be identical. Equal values may be shown once.
Legend:
Candida albicans = assay: Lymphocyte mediated antifungal activity against Candida albicans (growth inhibition), lymphocytes from HIV+ patients; type: cell-based; conditions: for mean change in antifungal activity: 50 ng/ml d-FEN vs no d-FEN; for Antifungal Units, d-FEN: one line per patient and Mean + SEM
Description: (§1) The T lymphocytes analyzed were obtained from 20 HIV+ patients (9 females and 11 males, 25-48 years of age). The patients were diagnosed as being HIV+ within the past 0.5-9 years, and 15 are being treated with antiviral drugs. The subjects' study identification number (indicates the order in which bloods were drawn), CD4+ and CD8+ counts (determined March, 1996, as part of the present study), age, sex, date of diagnosis, and pharmacotherapy are provided in Table 1.
The patients fell into one of three groups (Groups A, B and C) based on their CD4+ cell counts (the number of T helper cells/μL blood): 8 of the HIV+ patients had normal (or above normal) CD4+ levels (normal range 550-1500/μL); 4 had levels between 200-499/μL; and, 7 had CD4+ counts equal to or below 200/μL. This latter group of patients by definition have AIDS (see Table 41-3 from K. J. Ryan (Ed.), Sherris Medical Microbiology, Third Edition, Appleton & Lange:Norwalk, Conn., 1994, p. 547). These patients, moreover, have had recurrent candidiasis and other opportunistic infections which have become increasingly difficult to manage. All of the patients' CD8+ cell (cytotoxic T lymphocytes) counts were within or above normal range (300-1000/μL). We were unable to obtain enough lymphocytes from one patient (#4) to analyze their antifungal activity.
(§2) The experimental protocol for this project is illustrated in Table A. Note that the cultures were exposed to two doses (5 and 50 ng/ml) of d-FEN in the mitogenesis assays, whereas only one dose (50 ng/ml) was used in the antifungal and cytokine release assays.
Isolation of Peripheral Blood Mononuclear Cells. Forty ml of venous blood were aseptically drawn into sterile 10 ml tubes containing 20 U/ml preservative free heparin, diluted with an equal volume of Hank's Balanced Salt Solution (HBSS), layered over Lymphocyte Separation Medium (LSM, Bionetics, Kensington, Md.), and centrifuged at 1,000×g for 30 min. After centrifugation, the mononuclear cell layer was recovered from the interface and washed twice in HBSS prior to further manipulation and then enumerated microscopically.
Lymphocyte Mediated Antifungal Activity Against Candida albicans: Fungal Culture. C. albicans cultures were stored at 25° C. on Sabouraud's dextrose agar (SDA) (Becton Dickinson and Co., Cockeysville, Md.). Cells used for experimentation were cultured overnight at 37° C. on SDA, collected as isolated colonies, and washed once in HBSS. Yeast cultures were enumerated microscopically. C. albicans were inoculated into RPMI 1640 medium. C. albicans hyphal forms were obtained by incubation at 37° C. with 5% CO2 in RPMI 1640. Inoculum of 2×10^5 yeast cells/ml yield approximately 100% hyphal fragments when incubated for 2 h at 37° C.
Activation of Lymphocytes. Human peripheral blood lymphocytes were placed in culture medium containing 5×10^-5 2-mercaptoethanol (2-ME) at a concentration of 2.0×10^6 cells/ml with d-FEN (50 ng/ml was added on the second day of culture) and 1,500 U/ml IL-2 (Hoffman-La Roche Inc., Nutley, N.J.) in Falcon, Multiwell plates (Becton Dickinson, Lincoln Park, N.J.) for 3 and 4 days. The cells were harvested following incubation at 37° C., overlaid onto LSM and centrifuged at 1,000×g for 20 min. The cells at the interface were washed twice with HBSS prior to assessment of functional activity.
Measurement of the Inhibition of C. albicans Growth. Fungal cells used for experimentation were collected from isolated, overnight colonies on SDA, and washed once in HBSS. Yeast were resuspended to 2×10^5 /ml in RPMI 1640 and 5×10^3 yeast placed in individual wells of 96 well flat bottom plates (Corning Glass Works, #25861, Corning, N.Y.). […]

TNF-α in CD8+ T cells = assay: TNF-α production by CD8+ T cells, flow cytometry; type: cell-based, human; conditions: 50 ng/ml; for % Positive Cells (TNF-α immunopositive), d-FEN / TNF-α Titer, d-FEN: Mean ± SEM
Description: as §1, §2
(§3) Cytokine Profiles. Peripheral mononuclear cells were isolated by the Ficoll-Hypaque method and washed twice with RPMI-1640 medium. Cell suspensions were made at 1×10^6 /ml and the cells activated with interleukin-2 (IL-2) for 18 h or 4 days at 37° C. under 5% CO^2 +95% air. Monensin (1 nM) then was added to the culture to block secretion of cytokines, and the cultures allowed to continue for another 3 h. The cells were washed twice with PBS+1% fetal calf serum (FCS) with 0.1% saponin+0.1% sodium azide, then washed once with PBS-1% FCS and stained with anti-cytokine MAb-FL conjugate for 30 min. Following two washes, the cells were analyzed by flow cytometry for production of IL-2, IFN-γ and TNF-α. The MAbs-FL conjugates were obtained from Pharmingen (San Diego, Calif.). Potential effects of on cytokine production were evaluated (a) as increases in the percentage of a T cell subset which produce the respective cytokine; and, (b) as increases in the amount of cytokine produced by each subset. The latter were analyzed as a shift of the cytokine histograms.
(§4) The data were analyzed by a one- or two-way analysis of variance (ANOVA) with repeated measures where appropriate ([…] version 1; Jandel, San Rafael, Calif.). Significant main effects were subjected to post hoc analysis using the Student-Newman Keuls All Pairwise Multiple Comparisons test or the Mann-Whitney U test.

[1] = tested on: IL-2 in CD4+ (CD8-) T cells; assay: IL-2 production by CD4+ (CD8-) T cells, flow cytometry; type: cell-based, human; conditions: for % Positive Cells (IL-2 immunopositive), d-FEN / IL-2 Titer, d-FEN: CD4+ (CD8-) T cells, Mean ± SEM
Description: as §1, §2, §3, §4

IL-2 in CD8+ T cells = assay: IL-2 production by CD8+ T cells, flow cytometry; type: cell-based, human; conditions: for % Positive Cells (IL-2 immunopositive), d-FEN / IL-2 Titer, d-FEN: Mean ± SEM
Description: as §1, §2, §3, §4

[2] = Homo sapiens, T-cell, read-out: percent increase of IL-2 titer over VEH
[3] = 50 ng/ml, CD8+ T cells, non-AIDS HIV+

`CCN[C@@H](C)Cc1cccc(C(F)(F)F)c1` [d-FEN] was tested, and the “mean change in antifungal activity” value (Candida albicans; Group B) was -13%, the “mean change in antifungal activity” value (Candida albicans; Group C (AIDS)) was “+100%” and the “patients showing increased antifungal activity” value (Candida albicans; 50 ng/ml d-FEN, Group A) was 7 of the 8. For the same compound, the “Antifungal Units, d-FEN” value (Candida albicans; 50 ng/ml d-FEN, Group A (normal CD4+ HIV+ patients)) was 62 Antifungal Units and 84 Antifungal Units and 82 Antifungal Units and 144 Antifungal Units and 31 Antifungal Units and 60 Antifungal Units and 236 Antifungal Units and 95 ± 23 Antifungal Units, the “antifungal activity response in words” value (Candida albicans; 50 ng/ml d-FEN, Group B) was “mixed response” and the “Antifungal Units, d-FEN” value (Candida albicans; 50 ng/ml d-FEN, Group B (CD4+ 200-499/μL)) was 16 Antifungal Units and 164 Antifungal Units and 120 Antifungal Units and 75 Antifungal Units and 94 ± 32 Antifungal Units. For the same compound, the “patients showing increased antifungal activity” value (Candida albicans; 50 ng/ml d-FEN, Group C (AIDS)) was “all 7 of the AIDS patients (Group C) evidenced increased”, the “Antifungal Units, d-FEN” value (Candida albicans; 50 ng/ml d-FEN, Group C (AIDS)) was 130 Antifungal Units and 321 Antifungal Units and 164 Antifungal Units and 355 Antifungal Units and 307 Antifungal Units and 314 Antifungal Units and 394 Antifungal Units and 284 ± 37 Antifungal Units and the “antifungal activity of Group C vs other two groups” value (Candida albicans; 50 ng/ml d-FEN, one-way ANOVA p<0.001) was “significantly greater in the presence of d-FEN”. For the same compound, the “effect on TNF-α titer in words” value (TNF-α in CD8+ T cells) was “No significant effects on TNF-α titer were observed”, the “% Positive Cells (TNF-α immunopositive), d-FEN” value (TNF-α in CD8+ T cells; AIDS) was 62 ± 4% and the “TNF-α Titer, d-FEN” value (TNF-α in CD8+ T cells; AIDS) was 329 ± 57 geometric mean channel fluorescence. For the same compound, the “% Positive Cells (TNF-α immunopositive), d-FEN” value (TNF-α in CD8+ T cells; non-AIDS HIV+) was 69 ± 3%, the “TNF-α Titer, d-FEN” value (TNF-α in CD8+ T cells; non-AIDS HIV+) was 392 ± 47 geometric mean channel fluorescence and the activation at 0.05 µg/mL (TNF-α in CD8+ T cells; Homo sapiens, T-cell, AIDS, read-out: percent increase of TNF-α+ cells over VEH) was 24%. The “% Positive Cells (IL-2 immunopositive), d-FEN” value ([1]; 50 ng/ml, AIDS) was 9 ± 4%, the “IL-2 Titer, d-FEN” value ([1]; 50 ng/ml, AIDS) was 213 ± 33 geometric mean channel fluorescence and the “% Positive Cells (IL-2 immunopositive), d-FEN” value ([1]; 50 ng/ml, non-AIDS HIV+) was 32 ± 3%. For the same compound, the “IL-2 Titer, d-FEN” value ([1]; 50 ng/ml, non-AIDS HIV+) was 308 ± 27 geometric mean channel fluorescence, the “effect on IL-2 levels in words” value ([1]; 50 ng/ml, CD4+ T cells, non-AIDS) was “not in the non-AIDS patients' CD4+ T cells” and the activation at 0.05 µg/mL [1, 2] was 55%. For the same compound, the “% Positive Cells (IL-2 immunopositive), d-FEN” value (IL-2 in CD8+ T cells; 50 ng/ml, CD8+ T cells, AIDS) was 18 ± 4%, the “IL-2 Titer, d-FEN” value (IL-2 in CD8+ T cells; 50 ng/ml, CD8+ T cells, AIDS) was 147 ± 34 geometric mean channel fluorescence and the “effect on IL-2 titer in words” value (IL-2 in CD8+ T cells; 50 ng/ml, CD8+ T cells, non-AIDS) was “not from the non-AIDS patients”. The “% Positive Cells (IL-2 immunopositive), d-FEN” value (IL-2 in CD8+ T cells; [3]) was 36 ± 3%, the “IL-2 Titer, d-FEN” value (IL-2 in CD8+ T cells; [3]) was 220 ± 28 geometric mean channel fluorescence and the activation at 0.05 µg/mL (IL-2 in CD8+ T cells; [2]) was 40%.
